Assay results from patent US20050143350A1, “Combination drug therapy to treat obesity” (priority 2003, published 2005).
Entries after “also recorded” stand apart in the source; their conditions may differ.

Assays:
[1] = Patient case records: body weight during co-administration of an anticholinesterase agent and an antidepressant; assay type: in vivo, human; design: Weight / Wt. Chg. / Δ Wt.: unit not given here; settings: for Wt. Chg.: positive = loss
Excerpt: The following examples illustrate exemplified treatment regimens and resultant synergistic effects in achieving long-term stable weight loss by co-administering to an individual an anticholinesterase agent and an antidepressant. Each patient is given an alphanumeric designator.

[2] = test system: P450 cytochrome; settings: cited from earlier work
[3] = doses over 300 mg a day; cited from earlier work
[4] = in vivo; cited from earlier work
[5] = Patient B3, comments wrap over rows: 'Epigastric discomfort, no vomiting.' (day 70), 'Bowels a little loose' (day 126), 'Vomiting after rivastigmine at supper' (day 175), 'Diethylpropion made them vomit twice.' (day 189)
[6] = patient R2, day 14, baseline 209.3, venlafaxine 75 mg alone, no rivastigmine
[7] = patient R2, day 35, baseline 209.3, venlafaxine 75 mg alone, no rivastigmine
[8] = patient R2, day 111, baseline 209.3, venlafaxine 75 mg alone, no rivastigmine

CCN(C)C(=O)Oc1cccc([C@H](C)N(C)C)c1 [Riva.]
Comments: adverse effects ([1]; patient M1, day 153, Tried 12 mg of Riva.): Caused vomit-; also recorded: ing, diarrhea,; also recorded: dizzy. B.P
B.P. (Comments) ([1]; patient M1, day 153, Tried 12 mg of Riva., initial B.P. 140/100): 88/64

CCN(C)C(=O)Oc1cccc([C@H](C)N(C)C)c1 [Rivastigmine, rivastigmine]
Comments (side effects) [1, 5]: Vomiting
metabolism by the P450 cytochrome [2]: not metabolized by the P450 cytochrome

COc1ccc(C(CN(C)C)C2(O)CCCCC2)cc1 (stereo not shown) [Venlafaxine, venlafaxine]
Δ Wt. ([1]; Patient F1, change from baseline 214.5, positive = weight lost, visit day = Days column (7-512)): 6.0
Weight ([1]; human, in vivo): 208.5
Weight [1, 6]: 207.5
Wt. Chg. [1, 6]: 1.8
Weight [1, 7]: 206.0
Wt. Chg. [1, 7]: 3.3
Weight [1, 8]: 213.3
Wt. Chg. [1, 8]: −4.0
patients with a mild increase in blood pressure [3]: 15%
absorption, influence of food [4]: not influenced by the presence of food

CCN(CC)C(C)C(=O)c1ccccc1 (stereo not shown) [Diethylpropion, diethylpropion]
Comments (side effects) [1, 5]: vomit

CN(C)C(=N)N=C(N)N [Metformin]
Comments (side effects) ([1]; Patient B1, comment wraps over rows: 'Sweating and uncomfortable stomach in a.m.' (day 59), 'Metformin causes diarrhea'): diarrhea
